Source: PMC12033364, “Emergence of transferable daptomycin resistance in Gram-positive bacteria” (npj Antimicrobials and Resistance, 2025)

Assays:
[1] = system: B. subtilis 168; assay: DAP MIC, micro-broth dilution, plasmid-carrying strains; format: cell-based, Bacillus subtilis
Method: (§1) Bacteria were grown in Muller-Hinton broth (MH) (Carl Roth GmbH + Co. KG, Karlsruhe, Germany) and over-night cultures supplemented with antibiotics when required. […] For transcription profiling experiments, bacteria were exposed to 128 µg/mL DAP for 30 min. All strains, except bacilli (30 °C), were incubated at 37 °C.
(§2) Recombinant plasmids (Table S1) were generated by in vitro E. coli cloning method, employing shuttle vector pCG248 as backbone and E. coli DC10B as host. After recovery from E. coli, recombinant plasmids were transformed into S. aureus or B. subtilis via electroporation.
(§3) The cultures were adjusted to 5 × 10^5 CFU/mL and transferred to a 96-well flat bottom microtiter plate (Greiner Bio-One GmbH, Frickenhausen, Germany). 100 ng/mL anhydrotetracycline (ATc) (Carl Roth GmbH + Co. KG, Karlsruhe, Germany) was added if required; ATc-containing plates were stored in the dark. Plates were incubated for 18 h at 37 °C (24 h at 30 °C for bacilli) under static conditions. Afterwards, the OD595 was measured to determine the MIC according to EUCAST guidelines.

[2] = system: S. aureus RN4220; assay: as above; format: cell-based, Staphylococcus aureus; settings: MH + 50 µg/mL CaCl2, 18 h 37 °C, three biological replicates
Method: as §1, §2, §3

[3] = system: drcA and drcB (TS92_00079, TS92_00080) in M. sciuri TS92; assay: Transcription profiling (RNA-Seq) upon DAP exposure; format: cell-based, Mammaliicoccus sciuri; settings: M. sciuri TS92 exposed to 128 µg/mL DAP for 30 min, three biological replicates, DESeq2
Method: An overnight culture of M. sciuri TS92 was diluted in fresh MH to an optical density at 600 nm (OD600) of 0.05 and grown to OD600 0.5. The culture was split into 10 mL each aliquots and incubated in the absence and presence of 128 µg/mL DAP for 30 min. Subsequently, total RNA extraction was performed as described previously.
RNA was isolated from three biological replicates. RNA quality was checked using a 2100 Bioanalyzer with the RNA 6000 Nano Kit (Agilent Technologies, Santa Clara, USA). cDNA libraries suitable for sequencing were prepared from 1000 ng of total RNA after DNase I treatment (Thermo Fisher, Darmstadt, Germany). […] The number of PCR cycles was determined at 14 by qPCR and the elongation time was set to 15 s. Libraries were quantified by Qubit^TM dsDNA HS Assay Kit and Qubit^TM 3.0 Fluorometer (ThermoFisher), and quality was checked using 2100 Bioanalyzer with the High Sensitivity DNA Kit (Agilent Technologies) before pooling. Sequencing of pooled libraries, spiked with 5% PhiX control library, was performed at ~11–15 million reads per sample in single-end mode with 75 nucleotide read length on the NextSeq 500 platform (Illumina, San Diego, CA, USA). […] Afterwards, the pipeline READemption v0.4.5[59] was applied to align all reads longer than 11 nt (-l 12) to our de novo assembled M. sciuri TS92 genome using segemehl v0.2.0[60] with an accuracy cut-off of 95% (-a 95). […]

[4] = system: S. aureus USA300 LAC*; assay: DAP MIC, micro-broth dilution, plasmid-carrying MRSA strains; format: cell-based, Staphylococcus aureus; settings: MH + 50 µg/mL CaCl2, 18 h 37 °C, three biological replicates
Method: as §1, §2, §3

[5] = system: Enterococcus faecalis CVM N59689F; settings: E. faecalis CVM N59689F, drc-carrying isolate from market swine; cited from earlier work
Source text: Table 1 Detection of the drc locus (drcRS/drcAB) in staphylococci and enterococci | column: DAP MIC (µg/mL) || Another bottleneck in clinical AMR development is that AMR genes from environmental microorganisms must gain access to pathogenic species. This requires donors and recipients to come into close physical contact, which is often challenging as pathogenic and environmental species rarely share the same ecological niche. In this respect, M. sciuri may play a crucial role in drc acquisition and spread. Due to its dual lifestyle as a soil bacterium and animal commensal, M. sciuri comes into contact with both the soil resistome and commensal bacteria associated with warm-blooded hosts, making M. sciu ...

For CCCCCCCCCC(=O)N[C@@H](Cc1c[nH]c2ccccc12)C(=O)N[C@H](CC(N)=O)C(=O)N[C@@H](CC(=O)O)C(=O)N[C@@H]1C(=O)NCC(=O)N[C@@H](CCCN)C(=O)N[C@@H](CC(=O)O)C(=O)N[C@H](C)C(=O)N[C@@H](CC(=O)O)C(=O)NCC(=O)N[C@H](CO)C(=O)N[C@@H]([C@H](C)CC(=O)O)C(=O)N[C@@H](CC(=O)c2ccccc2N)C(=O)O[C@@H]1C [DAP, Daptomycin], the “DAP MIC” value ([1]; B. subtilis 168_Pxyl/tet-drcAB + ATc (induced), MH + 50 µg/mL CaCl2, 24 h 30 °C, three biological replicates) was 16 µg/mL, the “DAP MIC” value ([1]; B. subtilis 168_drcRS/drcAB (entire drc locus on plasmid), MH + 50 µg/mL CaCl2, 24 h 30 °C, three biological replicates) was over 256 µg/mL and the “DAP MIC” value ([1]; B. subtilis 168 as worded in the text, before induction of drcAB expression) was 2 µg/mL. For the same compound, the “DAP MIC” value ([2]; S. aureus RN4220_Pxyl/tet-drcAB + ATc (100 ng/mL, induced)) was 64 µg/mL, the “DAP MIC” value ([2]; S. aureus RN4220_drcRS/drcAB (entire drc locus, native drcRS control, plasmid)) was 64 µg/mL and the “DAP MIC” value ([2]; S. aureus RN4220_empty vector control) was 1 µg/mL. The “up-regulation of drcA and drcB transcription upon DAP exposure versus untreated control” value [3] was 128 fold change, the “DAP MIC” value ([4]; S. aureus USA300 LAC*_Pxyl/tet-drcAB + ATc (induced)) was 32 µg/mL and the “DAP MIC” value ([4]; S. aureus USA300 LAC*_drcRS/drcAB (entire drc locus on plasmid)) was 128 µg/mL. The “DAP MIC” value ([4]; S. aureus USA300 LAC*_empty vector control) was 1 µg/mL and the “DAP MIC” value [5] was over 16 µg/mL.
